{"source": "patent US11613547B2", "about": "(priority 2019, dated 2023)", "key": {"[1]": {"molecular_target": "T1, hMOR (Homo sapiens, UniProt P35372)", "T1 construct": "expressed in transfected cells; host or cells: HEK 293T (ATCC CRL-11268), transient", "assay": "cell-based", "type": "cell-based", "settings": "for Emax: HEK-293T, read-out: Gi Emax hMOR; for EC50: read-out: Gi EC50 hMOR"}, "[2]": {"molecular_target": "T1, hMOR", "assay": "Tango β-arrestin recruitment assay, hMOR", "type": "cell-based"}, "[3]": {"molecular_target": "T2, hKOR (Homo sapiens, UniProt P41145)", "T2 construct": "expressed in transfected cells; host or cells: HEK 293T (ATCC CRL-11268), transient", "assay": "cAMP inhibition assay (GloSensor, HEK 293T), hKOR", "type": "cell-based", "settings": "for Emax: HEK-293T, read-out: Gi Emax hKOR; for Bias factor toward G protein, hKOR: cAMP inhibition vs Tango, against U50,488H as control"}, "[4]": {"molecular_target": "T2, hKOR", "assay": "Tango β-arrestin recruitment assay, hKOR", "type": "cell-based", "settings": "for Arrestin pEC50±SEM hKOR / EC50: Tango, WT-hKOR"}, "[5]": {"molecular_target": "T3, mMOR (Mus musculus, UniProt P42866)", "T3 construct": "expressed in transfected cells", "assay": "Radioligand competition binding ([125I]IBNtxA), CHO membranes, mMOR", "settings": "vs 125IBNtxA (0.1 nM), mean ± SEM"}, "[6]": {"molecular_target": "T4, mKOR (Mus musculus, UniProt P33534)", "T4 construct": "expressed in transfected cells", "assay": "Radioligand competition binding ([125I]IBNtxA), CHO membranes, mKOR", "settings": "vs 125IBNtxA (0.1 nM), mean ± SEM"}, "[7]": {"molecular_target": "T5, mDOR (Mus musculus, UniProt P32300)", "T5 construct": "expressed in transfected cells", "assay": "Radioligand competition binding ([125I]IBNtxA), CHO membranes, mDOR", "settings": "vs 125IBNtxA (0.1 nM), CHO membranes, mean ± SEM"}, "[8]": {"molecular_target": "T3, mMOR", "assay": "[35S]GTPγS functional assay, mMOR", "type": "biochemical"}, "[9]": {"molecular_target": "T4, mKOR", "assay": "[35S]GTPγS functional assay, mKOR", "type": "biochemical"}, "[10]": {"molecular_target": "T5, mDOR", "assay": "[35S]GTPγS functional assay, mDOR", "type": "biochemical"}, "[11]": {"molecular_target": "T6, mouse mu opioid receptor (mMOR) (Mus musculus, UniProt P42866)", "T6 construct": "expressed in transfected cells; host or cells: HEK-293T, transient (PEI), with BRET sensor cDNAs", "assay": "cell-based", "type": "cell-based"}, "[12]": {"molecular_target": "T6, mouse mu opioid receptor (mMOR)", "assay": "cell-based", "type": "cell-based", "remark": "listed apart in the source"}, "[13]": {"molecular_target": "T7, rat kappa opioid receptor (rKOR) (Rattus norvegicus, UniProt P34975)", "T7 construct": "expressed in transfected cells; host or cells: HEK-293T, transient (PEI), with BRET sensor cDNAs", "assay": "BRET assay, G-protein activation, rKOR", "type": "cell-based"}, "[14]": {"molecular_target": "T7, rat kappa opioid receptor (rKOR)", "assay": "BRET assay, arrestin recruitment, rKOR", "type": "cell-based", "settings": "BRET"}, "[15]": {"molecular_target": "T8, mouse delta opioid receptor (mDOR) (Mus musculus, UniProt P32300)", "T8 construct": "expressed in transfected cells; host or cells: HEK-293T, transient (PEI), with BRET sensor cDNAs", "assay": "BRET assay, G-protein activation, mDOR", "type": "cell-based"}, "[16]": {"molecular_target": "T9, hDOR (Homo sapiens, UniProt P41143)", "assay": "cAMP inhibition assay, hDOR", "type": "cell-based", "set-up": "expressed in transfected cells"}, "[17]": {"molecular_target": "T9, hDOR", "assay": "Tango β-arrestin recruitment assay, hDOR", "type": "cell-based", "set-up": "expressed in transfected cells; host or cells: HTLA cells expressing TEV fused-beta-Arrestin2"}}, "note": "“Also recorded” adds a separate entry of the source."}
{"smiles": "NCc1ccc(C(=O)N[C@@H]2CC[C@H]3[C@H]4Cc5ccc(O)c6c5[C@@]3(CCN4CC3CC3)[C@H]2O6)cc1", "note": "[MP1209, 4-(aminomethyl)-N-((4R,4aR,7R,7aR,12bS)-3-(cyclopropylmethyl)-9-hydroxy-2,3,4,4a,5,6,7,7a-octahydro-1H-4,12-methano[1]benzofuro[3,2-e]isoquinolin-7-yl)benzamide]", "values": [{"measurement": "Gi pEC50±SEM hMOR", "setting": "[1]", "result": "9.61±0.04"}, {"measurement": "Emax", "setting": "[1]", "result": "98.5 ± 0.96", "unit": "%"}, {"measurement": "EC50", "setting": "[1]", "result": 0.25, "unit": "nM"}, {"measurement": "arrestin recruitment at hMOR", "setting": "[2]; Tango", "result": "null arrestin recruitment; also recorded: no arrestin recruitment was observed"}, {"measurement": "Emax", "setting": "[3]", "result": "100 ± 1.23", "unit": "%"}, {"measurement": "Gi pEC50±SEM hKOR", "setting": "[3]; cAMP inhibition", "result": "10.6±0.05"}, {"measurement": "Bias factor toward G protein, hKOR", "setting": "[3]", "result": 0.6}, {"measurement": "EC50", "setting": "[3]; cAMP inhibition, read-out: Gi EC50 hKOR", "result": 0.024, "unit": "nM"}, {"measurement": "Emax", "setting": "[4]", "result": "67 ± 3", "unit": "%"}, {"measurement": "Arrestin pEC50±SEM hKOR", "setting": "[4]", "result": "9.43±0.19"}, {"measurement": "EC50", "setting": "[4]", "result": 0.37, "unit": "nM"}]}
{"smiles": "O=C(N[C@@H]1CC[C@H]2[C@H]3Cc4ccc(O)c5c4[C@@]2(CCN3CC2CC2)[C@H]1O5)c1cccc(CO)c1", "note": "[MP1210, N-((4R,4aR,7R,7aR,12bS)-3-(cyclopropylmethyl)-9-hydroxy-2,3,4,4a,5,6,7,7a-octahydro-1H-4,12-methano[1]benzofuro[3,2-e]isoquinolin-7-yl)-3-(hydroxymethyl)benzamide]", "values": [{"measurement": "Gi pEC50±SEM hMOR", "setting": "[1]", "result": "9.81±0.05"}, {"measurement": "Emax", "setting": "[1]", "result": "94.6 ± 0.98", "unit": "%"}, {"measurement": "EC50", "setting": "[1]", "result": 0.15, "unit": "nM"}, {"measurement": "arrestin recruitment at hMOR", "setting": "[2]; Tango", "result": "null arrestin recruitment; also recorded: no arrestin recruitment was observed"}, {"measurement": "Emax", "setting": "[3]", "result": "101 ± 1.1", "unit": "%"}, {"measurement": "Gi pEC50±SEM hKOR", "setting": "[3]; cAMP inhibition", "result": "10.6±0.05"}, {"measurement": "Bias factor toward G protein, hKOR", "setting": "[3]", "result": 1.2}, {"measurement": "Emax", "setting": "[4]", "result": "63 ± 3.3", "unit": "%"}, {"measurement": "Arrestin pEC50±SEM hKOR", "setting": "[4]", "result": "8.94±0.17"}]}
{"smiles": "CO[C@@]12CC[C@@H](NC(=O)c3cccc(I)c3)C3Oc4c(O)ccc5c4[C@@]31CCN(CC1CC1)C2C5", "note": "(stereo partly drawn) [MP1305, N-((4aS,7R,12bS)-3-(Cyclopropylmethyl)-9-hydroxy-4a-methoxy-2,3,4,4a,5,6,7,7a-octahydro-1H-4,12-methanobenzofuro[3,2-e]isoquinolin-7-yl)-3-iodobenzamide]", "values": [{"measurement": "Ki", "setting": "[5]", "result": "0.25 ± 0.02", "unit": "nM"}, {"measurement": "Ki", "setting": "[6]", "result": "2.5 ± 0.3", "unit": "nM"}, {"measurement": "Ki", "setting": "[7]", "result": "11.7 ± 1.4", "unit": "nM"}, {"measurement": "Emax", "setting": "[8]", "result": "81.2 ± 16", "unit": "%"}, {"measurement": "EC50", "setting": "[8]; [35S]GTPγS, nM ± SEM", "result": "0.7 ± 0.1", "unit": "nM"}, {"measurement": "Emax", "setting": "[9]", "result": "42.2 ± 5.3", "unit": "%"}, {"measurement": "EC50", "setting": "[9]; [35S]GTPγS, nM ± SEM", "result": "7.4 ± 1.8", "unit": "nM"}, {"measurement": "Emax", "setting": "[10]", "result": "22 ± 0.9", "unit": "%"}, {"measurement": "EC50", "setting": "[10]; [35S]GTPγS, nM ± SEM", "result": "31.7 ± 3.6", "unit": "nM"}, {"measurement": "Bias factor toward G protein, hMOR", "setting": "[1]", "result": 11}, {"measurement": "Gi pEC50±SEM hMOR", "setting": "[1]", "result": "9.9±0.12"}, {"measurement": "Emax", "setting": "[1]", "result": "69 ± 1.8", "unit": "%"}, {"measurement": "EC50", "setting": "[1]", "result": 0.12, "unit": "nM"}, {"measurement": "Emax", "setting": "[2]", "result": "21 ± 3", "unit": "%"}, {"measurement": "Arrestin pEC50±SEM hMOR", "setting": "[2]; Tango", "result": "7.8±0.3"}, {"measurement": "EC50", "setting": "[2]; Tango", "result": 16.4, "unit": "nM"}, {"measurement": "Emax", "setting": "[3]", "result": "102 ± 1.2", "unit": "%"}, {"measurement": "Gi pEC50±SEM hKOR", "setting": "[3]; cAMP inhibition", "result": "9.14±0.05"}, {"measurement": "Bias factor toward G protein, hKOR", "setting": "[3]", "result": 4}, {"measurement": "Emax", "setting": "[4]", "result": "75 ± 1", "unit": "%"}, {"measurement": "Arrestin pEC50±SEM hKOR", "setting": "[4]", "result": "7.6±0.04"}, {"measurement": "EC50", "setting": "[4]", "result": 25.7, "unit": "nM"}, {"measurement": "Gi pEC50±SEM mMOR", "setting": "[11]", "result": "9.1±0.12"}, {"measurement": "EC50", "setting": "[11]; read-out: Gi EC50 mMOR", "result": 0.74, "unit": "nM"}, {"measurement": "Emax", "setting": "[11]; read-out: Gi Emax mMOR", "result": "72 ± 2", "unit": "%"}, {"measurement": "arrestin recruitment at mMOR", "setting": "[12]", "result": "no arrestin recruitment was observed"}, {"measurement": "Gi pEC50±SEM rKOR", "setting": "[13]; BRET", "result": "8.3±0.32"}, {"measurement": "Emax", "setting": "[13]; read-out: Gi Emax rKOR", "result": "35 ± 3", "unit": "%"}, {"measurement": "arrestin recruitment at rKOR", "setting": "[14]", "result": "no arrestin recruitment was observed"}, {"measurement": "EC50", "setting": "[15]; mDOR, BRET", "result": 40.4, "unit": "nM"}, {"measurement": "G-Protein activation pEC50 ± SEM", "setting": "[15]; mDOR, BRET", "result": "7.4 ± 0.20"}, {"measurement": "Emax", "setting": "[15]; read-out: G-Protein activation Emax % ± SEM", "result": "105 ± 5.9", "unit": "%"}, {"measurement": "EC50", "setting": "[16]; hDOR", "result": 74.2, "unit": "nM"}, {"measurement": "cAMP inhibition pEC50 ± SEM", "setting": "[16]; hDOR", "result": "7.1 ± 0.08"}, {"measurement": "Emax", "setting": "[16]; read-out: cAMP inhibition Emax % ± SEM", "result": "71 ± 2.4", "unit": "%"}, {"measurement": "Arrestin recruitment pEC50 ± SEM", "setting": "[17]; hDOR, Tango", "result": "6.6 ± 0.06"}, {"measurement": "EC50", "setting": "[17]; hDOR, Tango", "result": 228, "unit": "nM"}, {"measurement": "Emax", "setting": "[17]; read-out: Arrestin recruitment Emax % ± SEM", "result": "89 ± 2.8", "unit": "%"}]}
